Test system: HOP-62 complex spheroids with HUVEC/MSC, viability
Assay: Anticancer human tumor HOP-62 cell line growth inhibition [RAS];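 further: spheroids exposed to agents for seven days before readout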;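 on viability, T/C: 100% = DMSO vehicle control viability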
Conditions: for IC50: curve of first compound; for viability, T/C: stronger effect = lower value
Method in brief: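 Multi-cell-type spheroids: tumor cells plus HUVEC endothelial cells and mesenchymal stem cells. RAS-pathway inhibitors were combined with targeted agents, each dosed in half-log steps down from clinical Cmax, or from 10 microM when Cmax was unknown.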

CCN1CCN(Cc2ccc(Nc3ncc(F)c(-c4cc(F)c5nc(C)n(C(C)C)c5c4)n3)nc2)CC1 + CCn1c(-c2cc(N3CCN(C)CC3)cnc2C(C)OC)c2c3cc(ccc31)-c1csc(n1)CC(NC(=O)C1CC1C)C(=O)N1CCCC(N1)C(=O)OCC(C)(C)C2
IC50 (second compound 0.000949 µM): > 1000 nM | IC50 (second compound 0.003 µM): > 1000 nM | IC50 (second compound 0.00949 µM): > 1000 nM | IC50 (second compound 0.03 µM): 70.4 nM | IC50 (second compound 0.0949 µM): < 3.16 nM | IC50 (second compound 0.3 µM): < 3.16 nM | viability, T/C (second compound 0.000949 µM, first compound 0.00316 µM): 121% | viability, T/C (second compound 0.000949 µM, first compound 0.01 µM): 117% | viability, T/C (second compound 0.000949 µM, first compound 0.0316 µM): 85.5% | viability, T/C (second compound 0.000949 µM, first compound 0.1 µM): 109% | viability, T/C (second compound 0.000949 µM, first compound 0.316 µM): 114% | viability, T/C (second compound 0.000949 µM, first compound 1 µM): 87.8% | viability, T/C (second compound 0.003 µM, first compound 0.00316 µM): 97.9% | viability, T/C (second compound 0.003 µM, first compound 0.01 µM): 81.7% | viability, T/C (second compound 0.003 µM, first compound 0.0316 µM): 78.2% | viability, T/C (second compound 0.003 µM, first compound 0.1 µM): 90.4% | viability, T/C (second compound 0.003 µM, first compound 0.316 µM): 104% | viability, T/C (second compound 0.003 µM, first compound 1 µM): 62.6% | viability, T/C (second compound 0.00949 µM, first compound 0.00316 µM): 70.7% | viability, T/C (second compound 0.00949 µM, first compound 0.01 µM): 57.9% | viability, T/C (second compound 0.00949 µM, first compound 0.0316 µM): 68.2% | viability, T/C (second compound 0.00949 µM, first compound 0.1 µM): 74.3% | viability, T/C (second compound 0.00949 µM, first compound 0.316 µM): 57.3% | viability, T/C (second compound 0.00949 µM, first compound 1 µM): 50.8% | viability, T/C (second compound 0.03 µM, first compound 0.00316 µM): 52.8% | viability, T/C (second compound 0.03 µM, first compound 0.01 µM): 52.4% | viability, T/C (second compound 0.03 µM, first compound 0.0316 µM): 51.9% | viability, T/C (second compound 0.03 µM, first compound 0.1 µM): 49% | viability, T/C (second compound 0.03 µM, first compound 0.316 µM): 32.6% | viability, T/C (second compound 0.03 µM, first compound 1 µM): 50.4% | viability, T/C (second compound 0.0949 µM, first compound 0.00316 µM): 38.4% | viability, T/C (second compound 0.0949 µM, first compound 0.01 µM): 42.8% | viability, T/C (second compound 0.0949 µM, first compound 0.0316 µM): 39.2% | viability, T/C (second compound 0.0949 µM, first compound 0.1 µM): 32.4% | viability, T/C (second compound 0.0949 µM, first compound 0.316 µM): 32.6% | viability, T/C (second compound 0.0949 µM, first compound 1 µM): 47% | viability, T/C (second compound 0.3 µM, first compound 0.00316 µM): 36.6% | viability, T/C (second compound 0.3 µM, first compound 0.01 µM): 37.1% | viability, T/C (second compound 0.3 µM, first compound 0.0316 µM): 35.2% | viability, T/C (second compound 0.3 µM, first compound 0.1 µM): 33.4% | viability, T/C (second compound 0.3 µM, first compound 0.316 µM): 40.7% | viability, T/C (second compound 0.3 µM, first compound 1 µM): 45.3%

— PubChem BioAssay AID2060892 (Molecular Pharmacology Branch, DTP, NCI, 2025)
